Consider two compounds from article PMC9144278, “Inclusion of a Phytomedicinal Flavonoid in Biocompatible Surface-Modified Chylomicron Mimic Nanovesicles with Improved Oral Bioavailability and Virucidal Activity: Molecular Modeling and Pharmacodynamic Studies” (Pharmaceutics, 2022).

Molecules are shown by their SMILES. Values after ≈ are worked out from the molar mass of the structure shown. Read-outs that look alike come from different tables or passages of the source.

Data set [1] can be described thus: Particle size, zeta potential and PDI by Zetasizer (dynamic laser scattering). Format: physicochemical. Here is the method: The MH-charged PCMs (0.10 mL) were admixed with distilled water (10.0 mL) in a glass culture tube and vortexed for 5 min. The particle sizes and their scattering surrounding the mean (including those of the pure-MH dispersion, shown in Supplementary Materials Figure S1) were determined at 25 °C using dynamic laser scattering with a 45 mm focus lens and a beam length of 2.4 mm. The same instrument was utilized for the ZP measurements of the electrophoretic mobility of the particles in the electric field.

The nature of data set [2]: Ex vivo drug gut-permeation study, noneverted gut sac technique. Format: in vitro ADME, male Wistar rats. The settings on record: rat intestine. Here is the method:
A comparative ex vivo intestinal transport study between the drug suspension and the optimized formula was conducted using the noneverted gut sac technique. […] The small intestine from each animal was then excised and sliced into sections 5 cm in length. The sections were then rinsed using normal saline. Krebs–Ringer solution (~2 mL) was utilized to irrigate the intestinal segments, followed by sac formation by closing the lower portion of the segments using a thread. Each sac was filled with a sample of the pure MH suspension (estimated to comprise 5.0 mg of MH) or with the optimized F9 formulation (estimated to comprise 5.0 mg of MH). Finally, each sac was allocated in an organ path packed with 50 mL of Krebs–Ringer solution after the lower portion of each sac was tightly sealed with a thread. […] CO2 mixture. […] To maintain a constant total volume, the organ path was compensated by the addition of equal volumes of fresh Krebs–Ringer solution after each sample for analysis had been withdrawn. The amounts of MH that had permeated through the intestinal segment were determined via HPLC using a Hitachi LaChrom Elite instrument equipped with a Model Series L-2000 organizer box, L-2300 column oven, L-2130 pump with built in degasser, Rheodyne 7725i injector with a […], and a L-2455 photodiode array detector (PAD). […]

Data set [3] deals with Vero E6 cells. The data set is described as follows: MTT cytotoxicity assay (TC50). The data set is classed as cell-based, African green monkey. The conditions noted are these: 24 h. As for the experimental part:
Dulbecco’s Modified Eagle’s Medium (DMEM) was utilized for sample dilutions. The stock solutions of the investigated formulations were employed as solutions in 10% DMSO in double-distilled H2O. Cells were harvested in 96-well plates (100-µL/well at a density of 3 × 10^5 cells/mL) and were incubated for 24 h at 37 °C in 5% CO2. Afterwards, various amounts of the investigated compounds were added to the cells, and each experiment was performed in triplicate. After an extra 24 h, cell monolayers were dislodged from the supernatant and then rinsed 3 times with sterile phosphate buffer saline (PBS). MTT solution (20.0 µL of 5.00 mg/mL stock solution) was added into each well, and the cells were incubated for 4 h at 37 °C, followed by aspiration of the medium. […] The absorbances of the formazan solutions were assessed at λmax 540 vs. the 620 nm reference wavelength, using a multiwell plate reader. The cytotoxicity percentages related to the untreated cells were computed via GraphPad Prism software (version 7.01) using the following formula: %Cytotoxicity = (absorbance of cells without treatment − absorbance of cells with treatment) × 100 (absorbance of cells without treatment) […]
(Tetrazolium dyes change colour on reduction, which living cells bring about.)

Data set [4] concerns MERS-related coronavirus isolate NRCE-HKU270. Kind of data set: microbe, parasite or virus in culture. The data set is classed as cell-based, MERS-CoV.
Data set [5] deals with MERS-CoV. Format: in vivo, C57BL/6 mice. The conditions noted are these: oral 10 mg/kg once daily.
Data set [6] concerns IFN-γ, TNF-α, IL-6, IL-4, SOD in BALF. Also noted: species or system C57BL/6 mice. The settings on record: mouse, in vivo, po, 10 mg/kg.
Data set [7] deals with lung tissue. Set-up: species or system C57BL/6 mice. The conditions noted are these: mouse, in vivo.
Data set [8] relates to myeloperoxidase (MPO) and NF-κB. Also noted: species or system C57BL/6 mice. The conditions noted are these: mouse, in vivo.
The nature of data set [9]: Pharmacokinetic study after oral administration. The conditions noted are these: rat.
The conditions of data set [10]: cited from earlier work.
Setting [11] is: male, Wistar albino, in vivo, po, 20 mg/kg.

Broadly, the EC50 is the concentration needed to bring the measured effect to its halfway point. The inhibition is the relative decrease from the control value, in per cent. For orientation: AUC(0-inf) means total exposure, with the tail of the curve extrapolated. Higher therefore signals high exposure. The Tmax is the time from dosing to the highest level. One may read the AUC(0-t) as the area under the concentration-time curve up to a stated or last time point. What is called Cmax is the highest concentration seen after dosing. In the case of `O=c1c(O)c(-c2ccc(O)cc2O)oc2cc(O)cc(O)c12` [MH, 2′,3,4′,5,7-pentahydroxyflavone], the “particle sizes of MH dispersion” value in [1] (MH dispersion in PBS used for oral dosing) came to 672.3 ± 32.1. The PDI polydispersity index in [1] (mean ± SD (n = 3)) is on record as 0.576 ± 0.1. Moreover, the Papp at 90 min in data set [2] (male, Wistar, read-out: apparent permeability coefficient (APC) (converted)) was 2.53 ×10⁻⁶ cm/s. Moreover, the “flux (Jmax)” value in data set [2] (after 90 min) came out at 0.37 ± 0.018 μg/cm^2/min. For the same compound, in data set [3], the “concentration for 50% cell cytotoxicity (TC50)” value was 2.53 µg/mL. For the same compound, in data set [4], the “selectivity index (SI = CC50/EC50)” value was determined as 19.4. The EC50 in data set [4] (Middle East respiratory syndrome-related coronavirus, Vero C1008, read-out: EC50 antiviral activity) is 0.13 µg/mL (≈ 0.43 µM). For the same compound, the inhibition at 0.125 µg/mL in data set [4] (Middle East respiratory syndrome-related coronavirus, Vero C1008, read-out: inhibition efficacy (viral plaques)) was 48%. In addition, the “% plaque prohibition in lung homogenate” value in data set [5] (after 3 d postinfection) is given as 27.1%. Also, the “% plaque prohibition in lung homogenate” value in data set [5] (after 6 d postinfection) came to 44.8%. In data set [6], the “IFN-γ level in BALF” value amounted to 82.7 ± 7.51 pg/mg protein, the “IL-4 level in BALF” value was 23.5 ± 2.10 pg/mg protein, the “IL-6 level in BALF” value is recorded as 112.9 ± 14.6 pg/mg protein and the “SOD level in BALF” value is reported as 2.2 ± 0.35 U/mg protein. In addition, the “TNF-α level in BALF” value in [6] is 57.4 ± 6.2 pg/mg protein. In data set [7], the “effect on lung pathological alterations” value is “marked suppression in all of those alterations”. Also, in [8], the “effect on MPO and NF-κB protein expression in lung” value is recorded as “markedly suppressed the protein expression compared with the infected group”. In addition, in [9] (setting [11]), the area under the curve AUC(0-inf) was determined as 77000 ± 22000 ng·h/mL and the time of peak concentration (Tmax) was 2 h. In data set [9] (male, Wistar albino, in vivo, po, 20 mg/kg, AUC0–24, rat, 20 mg/kg MH, n = 6), this compound had an AUC(0-t) of 56100 ± 16200 ng·h/mL. For the same compound, the Cmax in data set [9] (male, Wistar albino, in vivo, po, 20 mg/kg, Cmax, 20 mg/kg MH, n = 6) was 4820 ± 840 ng/mL. Further, the “AUC0–24” value in data set [9] (oral, 20 mg/kg MH, n = 6, listed as Morin Hydrate Dispersion) is 56000 ± 16000 ng·h/mL.
A word on the pKa: it is the pH at which an ionisable group is half protonated. As to `NC(=O)N1c2ccccc2CC(=O)c2ccccc21` [oxycarbazepine], in data set [10], the pKa is listed as 10.7.
